Our source for the IC50 values is ChEMBL document CHEMBL1138727 (Bioorg Med Chem Lett, 2004).

The term IC50 denotes the point on the concentration scale where inhibition reaches its midpoint.

The target in assay [1] is T1, DNA-dependent protein kinase catalytic subunit (Homo sapiens, UniProt P78527). In words: Inhibitory activity against DNA-dependent protein kinase (DNA-PK) at 0.5 uM.
The target of assay [2] is Serine-protein kinase ATM (Homo sapiens, UniProt Q13315). In words: Inhibition of Mutated in ataxia telangiectasia protein ATM kinase.
The target in assay [3] is Serine/threonine-protein kinase ATR (Homo sapiens, UniProt Q13535). Nature of the assay: Inhibition of Ataxia telangiectasia related protein ATR kinase.
Assay [4] addresses Phosphatidylinositol 4,5-bisphosphate 3-kinase catalytic subunit alpha isoform (Homo sapiens, UniProt P42336). In words: Inhibition of Phosphatidylinositol 3-kinase p110 alpha subunit.
The target of assay [5] is Serine/threonine-protein kinase mTOR (Homo sapiens, UniProt P42345). In words: Inhibition of Mammalian target of Rapamycin mTOR.
For assay [6], the target named is T1, DNA-dependent protein kinase catalytic subunit. Nature of the assay: Inhibitory activity against DNA-dependent protein kinase (DNA-PK).

Sequence of Serine/threonine-protein kinase ATR (Q13535 whole entry, canonical isoform): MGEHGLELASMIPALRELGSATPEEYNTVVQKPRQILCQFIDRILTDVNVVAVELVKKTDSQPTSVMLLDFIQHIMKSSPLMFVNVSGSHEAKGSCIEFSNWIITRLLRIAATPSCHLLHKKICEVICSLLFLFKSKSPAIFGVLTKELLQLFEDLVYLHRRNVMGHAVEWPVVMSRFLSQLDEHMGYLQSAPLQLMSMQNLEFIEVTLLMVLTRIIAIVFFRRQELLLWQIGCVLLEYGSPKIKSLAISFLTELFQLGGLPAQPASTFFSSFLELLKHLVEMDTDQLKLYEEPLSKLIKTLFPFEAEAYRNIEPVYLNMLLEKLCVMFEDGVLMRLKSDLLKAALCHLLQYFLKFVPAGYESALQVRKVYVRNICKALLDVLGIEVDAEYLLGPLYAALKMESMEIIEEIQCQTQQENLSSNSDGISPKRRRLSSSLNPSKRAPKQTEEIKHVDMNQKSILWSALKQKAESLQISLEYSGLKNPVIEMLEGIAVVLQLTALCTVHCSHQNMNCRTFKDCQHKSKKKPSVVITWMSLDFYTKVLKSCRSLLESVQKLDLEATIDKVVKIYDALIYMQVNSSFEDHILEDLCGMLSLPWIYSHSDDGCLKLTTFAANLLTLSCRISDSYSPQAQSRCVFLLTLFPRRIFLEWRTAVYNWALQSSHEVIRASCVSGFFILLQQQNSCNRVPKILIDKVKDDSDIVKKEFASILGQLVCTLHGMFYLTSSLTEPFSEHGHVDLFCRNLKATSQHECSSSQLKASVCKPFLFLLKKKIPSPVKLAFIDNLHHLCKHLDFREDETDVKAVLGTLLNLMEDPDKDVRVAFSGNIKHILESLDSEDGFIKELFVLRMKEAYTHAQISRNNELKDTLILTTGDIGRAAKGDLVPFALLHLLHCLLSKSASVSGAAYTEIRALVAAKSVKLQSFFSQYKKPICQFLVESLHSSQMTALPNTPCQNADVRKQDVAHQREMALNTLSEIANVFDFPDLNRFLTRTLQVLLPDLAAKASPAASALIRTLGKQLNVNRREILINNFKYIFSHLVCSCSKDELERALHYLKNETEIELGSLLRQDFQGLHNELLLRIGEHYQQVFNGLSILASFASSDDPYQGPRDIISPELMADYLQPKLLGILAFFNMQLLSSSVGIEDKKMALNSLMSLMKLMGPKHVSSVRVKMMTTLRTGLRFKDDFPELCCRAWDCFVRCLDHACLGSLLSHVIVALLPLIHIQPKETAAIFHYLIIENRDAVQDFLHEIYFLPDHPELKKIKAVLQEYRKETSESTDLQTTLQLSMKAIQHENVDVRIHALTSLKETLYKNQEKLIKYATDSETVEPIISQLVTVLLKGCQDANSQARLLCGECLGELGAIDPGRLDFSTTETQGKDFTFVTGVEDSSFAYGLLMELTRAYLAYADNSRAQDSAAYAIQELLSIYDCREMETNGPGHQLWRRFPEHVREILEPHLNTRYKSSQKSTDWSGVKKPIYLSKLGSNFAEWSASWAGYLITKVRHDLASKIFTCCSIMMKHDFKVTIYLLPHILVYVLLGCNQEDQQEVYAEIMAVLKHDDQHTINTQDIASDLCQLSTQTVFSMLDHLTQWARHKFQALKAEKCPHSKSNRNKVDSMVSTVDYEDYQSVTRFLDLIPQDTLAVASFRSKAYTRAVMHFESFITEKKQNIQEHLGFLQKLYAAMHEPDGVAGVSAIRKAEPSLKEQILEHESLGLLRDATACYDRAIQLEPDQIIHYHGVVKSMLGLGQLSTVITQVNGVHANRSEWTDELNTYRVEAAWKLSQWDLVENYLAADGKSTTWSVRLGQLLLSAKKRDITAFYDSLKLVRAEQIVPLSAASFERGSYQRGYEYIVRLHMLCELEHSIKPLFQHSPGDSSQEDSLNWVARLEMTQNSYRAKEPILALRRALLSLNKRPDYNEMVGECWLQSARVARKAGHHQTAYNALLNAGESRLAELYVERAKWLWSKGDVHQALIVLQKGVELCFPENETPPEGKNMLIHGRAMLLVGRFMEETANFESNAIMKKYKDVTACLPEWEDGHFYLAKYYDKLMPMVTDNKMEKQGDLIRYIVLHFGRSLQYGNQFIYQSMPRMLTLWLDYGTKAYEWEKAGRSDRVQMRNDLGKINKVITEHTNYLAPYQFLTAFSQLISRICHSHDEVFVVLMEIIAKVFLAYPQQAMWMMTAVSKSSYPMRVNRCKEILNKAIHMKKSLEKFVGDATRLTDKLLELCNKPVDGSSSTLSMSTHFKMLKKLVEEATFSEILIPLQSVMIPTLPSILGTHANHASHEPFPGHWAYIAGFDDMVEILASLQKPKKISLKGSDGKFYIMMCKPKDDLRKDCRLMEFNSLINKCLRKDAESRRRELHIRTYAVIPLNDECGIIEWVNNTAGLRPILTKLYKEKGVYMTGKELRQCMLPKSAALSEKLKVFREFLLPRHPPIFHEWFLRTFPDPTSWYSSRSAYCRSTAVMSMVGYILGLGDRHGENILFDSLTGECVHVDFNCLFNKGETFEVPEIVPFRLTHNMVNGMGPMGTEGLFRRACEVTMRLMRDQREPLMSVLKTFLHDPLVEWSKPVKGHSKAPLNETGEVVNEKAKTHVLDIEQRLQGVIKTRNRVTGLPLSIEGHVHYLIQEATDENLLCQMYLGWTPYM
Sequence of Phosphatidylinositol 4,5-bisphosphate 3-kinase catalytic subunit alpha isoform (P42336 whole entry, canonical isoform): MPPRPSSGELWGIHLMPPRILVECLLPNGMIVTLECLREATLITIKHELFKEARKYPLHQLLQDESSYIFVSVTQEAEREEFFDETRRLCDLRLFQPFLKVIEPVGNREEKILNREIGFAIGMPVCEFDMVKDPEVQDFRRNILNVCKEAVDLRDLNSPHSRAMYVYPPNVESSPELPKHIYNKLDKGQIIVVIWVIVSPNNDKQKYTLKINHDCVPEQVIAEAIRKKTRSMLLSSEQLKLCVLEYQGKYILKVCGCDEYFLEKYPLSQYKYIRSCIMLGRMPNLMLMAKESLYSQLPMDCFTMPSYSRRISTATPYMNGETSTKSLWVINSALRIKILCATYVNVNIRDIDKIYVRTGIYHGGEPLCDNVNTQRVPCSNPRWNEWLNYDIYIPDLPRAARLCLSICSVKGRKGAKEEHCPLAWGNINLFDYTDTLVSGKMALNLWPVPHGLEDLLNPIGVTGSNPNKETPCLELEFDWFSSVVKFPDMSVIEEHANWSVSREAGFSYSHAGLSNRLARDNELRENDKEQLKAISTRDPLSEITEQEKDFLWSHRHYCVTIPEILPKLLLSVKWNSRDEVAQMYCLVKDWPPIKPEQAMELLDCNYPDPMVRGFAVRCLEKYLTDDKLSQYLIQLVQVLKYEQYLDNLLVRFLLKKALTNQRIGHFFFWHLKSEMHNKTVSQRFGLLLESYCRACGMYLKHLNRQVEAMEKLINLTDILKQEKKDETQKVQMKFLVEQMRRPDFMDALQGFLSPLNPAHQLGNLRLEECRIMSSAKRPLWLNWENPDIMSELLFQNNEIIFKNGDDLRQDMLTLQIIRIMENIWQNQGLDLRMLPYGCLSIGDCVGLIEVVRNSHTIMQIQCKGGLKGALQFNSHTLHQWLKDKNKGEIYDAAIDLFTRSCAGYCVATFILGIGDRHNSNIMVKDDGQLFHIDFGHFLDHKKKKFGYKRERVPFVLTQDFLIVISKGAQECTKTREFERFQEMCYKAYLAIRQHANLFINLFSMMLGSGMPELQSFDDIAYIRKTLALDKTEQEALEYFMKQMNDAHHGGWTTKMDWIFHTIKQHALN

In turn, `CC(=O)c1ccc(-c2cccc3c(=O)cc(N4CCOCC4)oc23)s1` registered an IC50 in assay [1] of 0.8 µM. For `O=c1cc(N2CCOCC2)oc2c(-c3cccs3)cccc12`, the midpoint of inhibition in assay [1], the IC50, lay at 0.3 µM. Consider `CC1CN(c2cc(=O)c3ccc4ccccc4c3o2)CCO1` (stereo not drawn), for which half-maximal inhibition in assay [1] (IC50) was put at 0.19 µM. This IC50 is about 1.6-fold lower than that of the compound before. `O=c1cc(N2CCOCC2)oc2c(-c3ccsc3)cccc12` registered an IC50 in assay [1] of 0.3 µM.

In the case of `COc1ccc(-c2cccc3c(=O)cc(N4CCOCC4)oc23)cc1`, in assay [1], the IC50 worked out at 0.9 µM. This IC50 lies about 3-fold higher than the previous one. On the same count and under the same terms, the value for `O=c1cc(N2CCOCC2)oc2ccccc12` was 1.3 µM; that for `O=c1cc(N2CCOCC2)oc2c(-c3cc4ccccc4s3)cccc12` was 0.8 µM. For `O=c1cc(N2CCOCC2)oc2c1ccc1ccccc12`, the IC50 in assay [2] was over 100 µM; in assay [3], over 100 µM; in assay [4] it was 13 µM; in assay [5] it was 6.4 µM. In assay [1], `O=c1cc(N2CCOCC2)oc2c(-c3ccc(CO)cc3)cccc12` registered an IC50 of 0.6 µM. Regarding `O=c1cc(N2CCOCC2)oc2c(-c3cccc4c3sc3ccccc34)cccc12`, the IC50 in assay [1] was 0.02 µM; in assay [2], over 100 µM; in assay [3], over 100 µM; in assay [6] it was 0.014 µM; in assay [4], 5 µM; in assay [5], 1.7 µM. Compound `O=c1cc(N2CCOCC2)oc2c(-c3cccc4c3oc3ccccc34)cccc12` displayed an IC50 in assay [1] of 0.04 µM. In other words, the double-digit nanomolar range.

With `O=c1cc(N2CCOCC2)oc2c(-c3ccccc3)cccc12` [LY-294002], the IC50 in assay [2] is over 100 µM; in assay [3], over 100 µM; in assay [6], 1.2 µM; in assay [5], 2.5 µM.
